# Experimental data: paper PMC9551036, “A selective and orally bioavailable VHL-recruiting PROTAC achieves SMARCA2 degradation in vivo” (Nature Communications, 2022)
# Where “and” joins values, the source holds several entries; their conditions need not be identical. Equal entries are not always repeated. Where two headings read alike, the source gives them in different places.
# Molecular target: SMARCA2 (Homo sapiens, UniProt P51531)
# Assay: SMARCA2 capillary electrophoresis protein assay in other cell lines (A549, NCI-H1568, HCT116, LU99, HCC-364, HCT-15, HCC4006, SK-N-AS)
# Format: cell-based
# Parameters: endogenous in cells; host or cells: RKO, NCI-H1568, A549, HCT116, LU99, HCC-364, HCT-15, HCC4006, SK-N-AS
# Settings: for LogEC50: log10 of concentration in mol/l
# Procedure: 130,000–200,000 cells were seeded in 24-well plates and incubated until settled down or overnight. Compounds were dissolved in DMSO and added to cells in indicated concentrations using a digital dispenser following an optional media change. Cells were incubated for 4 or 18 h as indicated. For SMARCA2/4 half-life determination, 150,000 or 200,000 cells were seeded in 24-well plates. The next day, 50 µg/ml cycloheximide (Sigma) was added and cells were incubated for 1–24 h. For SMARCA2/4 re-synthesis measurements, 200,000 cells were seeded in 24-well plates. The next day, 100 nM compound 6 was added for 4 h to degrade SMARCA2/4, and a sample was taken as baseline for normalisation. To allow re-synthesis, a VHL binder (compound 32, 25 or 50 µM) was then added for 3 or 24 h. Medium was removed, cells were washed with PBS and lysed with 80 µl Lysis Buffer (MSD Tris Lysis Buffer (#R60TX-2) + Halt Inhibitor Cocktail (100x) + Benzonase 0.5 µL/ml). Samples were frozen at −80 °C and thawed at room temperature before use. Samples were transferred to a V-bottom plate and insoluble debris was pelleted by centrifugation for 5 min at maximum speed. The supernatant was transferred to a fresh plate. Master Mix and Ladder were prepared according to manufacturer’s instructions for 12–230 kDa Wes Separation Module, 8 × 25 capillary cartridges, Protein Simple #SM-W004 with Anti-Rabbit Detection Module for Wes, Peggy Sue or Sally Sue, Protein Simple #DM-001. 4.8 µl lysate were mixed with 1.2 µl Master Mix to achieve a protein concentration of ~0.5 µg/µl. Antibodies were diluted in Antibody Diluent II (SMARCA2 Sigma #HPA029981 RRID:AB_10602406 1:25–100, SMARCA4 Cell Signalling #49360 clone D1Q7F RRID:AB_2728743 1:15–120 or Abcam #ab110641 clone EPNCIR111A RRID:AB_10861578 1:60, GAPDH Abcam #ab9485 RRID:AB_307275 1:250). Wes plates were prepared and run according to manufacturer’s instructions. Proteins were quantified with accompanying Compass Software. SMARCA2/4 protein levels were normalised to GAPDH. […] Where applicable, curves were fitted using a 4-parametric logistic model.
# [1] = HCC4006_SM2, four-parameter fit
# [2] = HCC-364_SM2, four-parameter fit
# SMARCA2, sequence (P51531 whole entry): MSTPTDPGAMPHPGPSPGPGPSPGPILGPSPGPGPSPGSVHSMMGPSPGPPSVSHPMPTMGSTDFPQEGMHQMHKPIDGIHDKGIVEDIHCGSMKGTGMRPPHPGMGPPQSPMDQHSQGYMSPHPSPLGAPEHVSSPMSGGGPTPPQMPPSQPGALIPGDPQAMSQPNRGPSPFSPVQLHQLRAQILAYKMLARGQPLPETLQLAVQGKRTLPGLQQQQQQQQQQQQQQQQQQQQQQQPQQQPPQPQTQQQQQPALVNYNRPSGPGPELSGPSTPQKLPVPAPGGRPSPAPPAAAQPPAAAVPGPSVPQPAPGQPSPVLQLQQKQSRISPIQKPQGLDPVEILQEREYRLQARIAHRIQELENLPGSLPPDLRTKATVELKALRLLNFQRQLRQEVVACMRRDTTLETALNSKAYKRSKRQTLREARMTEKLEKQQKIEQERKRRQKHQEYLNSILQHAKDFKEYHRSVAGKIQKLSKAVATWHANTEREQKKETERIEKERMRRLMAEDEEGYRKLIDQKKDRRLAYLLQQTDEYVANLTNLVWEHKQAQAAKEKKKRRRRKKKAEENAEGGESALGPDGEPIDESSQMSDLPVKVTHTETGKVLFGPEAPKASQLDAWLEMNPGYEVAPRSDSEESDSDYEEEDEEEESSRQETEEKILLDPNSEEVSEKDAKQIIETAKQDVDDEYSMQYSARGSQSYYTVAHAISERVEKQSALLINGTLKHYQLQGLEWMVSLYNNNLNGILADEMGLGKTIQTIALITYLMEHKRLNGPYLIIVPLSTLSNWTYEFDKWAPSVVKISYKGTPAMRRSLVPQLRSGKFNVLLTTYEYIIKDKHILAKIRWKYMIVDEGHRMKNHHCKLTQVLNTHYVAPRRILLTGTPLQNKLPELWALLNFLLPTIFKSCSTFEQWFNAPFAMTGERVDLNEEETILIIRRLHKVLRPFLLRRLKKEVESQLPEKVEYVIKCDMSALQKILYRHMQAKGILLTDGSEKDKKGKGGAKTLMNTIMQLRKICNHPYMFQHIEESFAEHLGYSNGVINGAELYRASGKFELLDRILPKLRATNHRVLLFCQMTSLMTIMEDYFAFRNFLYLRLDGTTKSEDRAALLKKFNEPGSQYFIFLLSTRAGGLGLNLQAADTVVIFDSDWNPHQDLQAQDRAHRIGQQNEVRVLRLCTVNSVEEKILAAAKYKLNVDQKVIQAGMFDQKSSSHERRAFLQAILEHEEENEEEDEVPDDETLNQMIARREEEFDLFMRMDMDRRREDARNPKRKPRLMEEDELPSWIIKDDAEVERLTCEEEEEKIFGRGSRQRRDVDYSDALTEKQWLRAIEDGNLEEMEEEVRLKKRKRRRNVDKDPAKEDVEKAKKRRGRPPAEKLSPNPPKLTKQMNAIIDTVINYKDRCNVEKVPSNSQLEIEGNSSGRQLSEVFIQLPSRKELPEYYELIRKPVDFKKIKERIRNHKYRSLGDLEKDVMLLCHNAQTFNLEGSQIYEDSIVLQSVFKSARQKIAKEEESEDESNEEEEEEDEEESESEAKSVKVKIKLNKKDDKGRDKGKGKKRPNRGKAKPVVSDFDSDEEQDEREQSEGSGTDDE
structure (smiles),measurement,setting,value
Cc1ncsc1-c1ccc(C(CCC(C)CCN2CCC(c3ccc4c(c3)n(C3CCCC3)c3nc(=O)c5c(Br)cccc5n43)CC2)NC(=O)C2CC(O)CN2C(=O)C(NC(=O)C2(F)CC2)C(C)(C)C)cc1 (stereo not drawn) [ACBI2],"Bottom (% protein remaining, four-parameter fit)","A549, 4h",4.929%
same,HillSlope (protein remaining),"A549, 4h",-1.225
same,LogEC50 (protein remaining),"A549, 4h",-8.097 log10(mol/l)
same,"Top (% protein remaining, four-parameter fit)","A549, 4h",100.9%
same,% protein remaining,"A549, 4h, conc 1.00001e-10 mol/l",84.5708% and 85.2048%
same,% protein remaining,"A549, 4h, conc 1.52416e-10 mol/l",108.644%
same,% protein remaining,"A549, 4h, conc 3.1623e-10 mol/l",89.402% and 93.1131%
same,% protein remaining,"A549, 4h, conc 4.57247e-10 mol/l",121.415%
same,% protein remaining,"A549, 4h, conc 1.00001e-9 mol/l",110.304% and 110.867%
same,% protein remaining,"A549, 4h, conc 1.37174e-9 mol/l",89.7364%
same,% protein remaining,"A549, 4h, conc 3.1623e-9 mol/l",63.5379% and 69.9208%
same,% protein remaining,"A549, 4h, conc 4.11523e-9 mol/l",69.7779%
same,% protein remaining,"A549, 4h, conc 1.00001e-8 mol/l",46.41% and 40.9559%
same,% protein remaining,"A549, 4h, conc 1.23457e-8 mol/l",53.3153%
same,% protein remaining,"A549, 4h, conc 3.1623e-8 mol/l",21.5929% and 21.3671%
same,% protein remaining,"A549, 4h, conc 3.7037e-8 mol/l",16.6414%
same,% protein remaining,"A549, 4h, conc 1.00001e-7 mol/l",9.055% and 9.573%
same,% protein remaining,"A549, 4h, conc 1.11111e-7 mol/l",6.719%
same,% protein remaining,"A549, 4h, conc 3.1623e-7 mol/l",3.884% and 5.2896%
same,% protein remaining,"A549, 4h, conc 3.33333e-7 mol/l",5.288%
same,% protein remaining,"A549, 4h, conc 1e-6 mol/l",9.764%
same,% protein remaining,"A549, 4h, conc 1.00001e-6 mol/l",2.893% and 6.667%
same,% protein remaining,"A549, 4h, conc 3.1623e-6 mol/l",2.881% and 4.488%
same,DC50,"A549, 4h, read-out: EC50 (protein remaining)",8 nM
same,"Bottom (% protein remaining, four-parameter fit)","A549, 8h",4.658%
same,HillSlope (protein remaining),"A549, 8h",-1.748
same,LogEC50 (protein remaining),"A549, 8h",-8.366 log10(mol/l)
same,"Top (% protein remaining, four-parameter fit)","A549, 8h",107%
same,% protein remaining,"A549, 8h, conc 1.52416e-10 mol/l",110.756% and 87.6939%
same,% protein remaining,"A549, 8h, conc 4.57247e-10 mol/l",98.1008% and 121.894%
same,% protein remaining,"A549, 8h, conc 1.37174e-9 mol/l",100.189% and 99.1847%
same,% protein remaining,"A549, 8h, conc 3.7037e-8 mol/l",13.1114% and 6.497%
same,% protein remaining,"A549, 8h, conc 1.11111e-7 mol/l",4.666% and 4.638%
same,% protein remaining,"A549, 8h, conc 3.33333e-7 mol/l",3.034% and 3.636%
same,% protein remaining,"A549, 8h, conc 1e-6 mol/l",2.595% and 3.383%
same,% protein remaining,"A549, 8h, conc 3e-6 mol/l",3.585% and 2.581%
same,DC50,"A549, 8h, read-out: EC50 (protein remaining)",4.31 nM
same,"Bottom (% protein remaining, four-parameter fit)","A549, 18h",5.224%
same,HillSlope (protein remaining),"A549, 18h",-3.553
same,LogEC50 (protein remaining),"A549, 18h",-8.518 log10(mol/l)
same,"Top (% protein remaining, four-parameter fit)","A549, 18h",104.8%
same,% protein remaining,"A549, 18h, conc 1.52416e-10 mol/l",87.6939%
same,% protein remaining,"A549, 18h, conc 4.57247e-10 mol/l",121.894%
same,% protein remaining,"A549, 18h, conc 1.37174e-9 mol/l",99.1847%
same,% protein remaining,"A549, 18h, conc 4.11523e-9 mol/l",30.1189%
same,% protein remaining,"A549, 18h, conc 1.23457e-8 mol/l",11.5462%
same,% protein remaining,"A549, 18h, conc 3.7037e-8 mol/l",6.497%
same,% protein remaining,"A549, 18h, conc 1.11111e-7 mol/l",4.638%
same,% protein remaining,"A549, 18h, conc 3.33333e-7 mol/l",3.636%
same,% protein remaining,"A549, 18h, conc 1e-6 mol/l",3.383%
same,% protein remaining,"A549, 18h, conc 3e-6 mol/l",2.581%
same,DC50,"A549, 18h, read-out: EC50 (protein remaining)",3.03 nM
same,SMARCA2 degradation in sensitive cell lines,A549 and NCI-H1568,rapid and complete degradation of SMARCA2
same,"Bottom (best-fit value, % protein remaining)",[1],15.27%
same,HillSlope,[1],-1.75
same,LogEC50,HCC4006_SM2,-7.779
same,DC50,"HCC4006_SM2, protein degradation, four-parameter fit, read-out: EC50 (the source's name)",16.6 nM
same,"Bottom (best-fit value, % protein remaining)",[2],10.4%
same,HillSlope,[2],-2.48
same,LogEC50,HCC-364_SM2,-8.138
same,DC50,"HCC-364_SM2, protein degradation, four-parameter fit, read-out: EC50 (the source's name)",7.28 nM
same,"Bottom (% protein remaining, four-parameter fit)","HCT116, SM2",21.77%
same,HillSlope (protein remaining),"HCT116, SM2",-1.136
same,"Top (% protein remaining, four-parameter fit)","HCT116, SM2",121.9%
same,"Bottom (best-fit value, % protein remaining)","HCT-15_SM2, four-parameter fit",-16.7%
same,HillSlope,"HCT-15_SM2, four-parameter fit",-0.6998
same,LogEC50,HCT-15_SM2,-6.787
same,DC50,"HCT-15_SM2, protein degradation, four-parameter fit, read-out: EC50 (the source's name)",163 nM
same,"Bottom (best-fit value, % protein remaining)","LU99_SM2, four-parameter fit",4.814%
same,HillSlope,"LU99_SM2, four-parameter fit",-1.159
same,LogEC50,LU99_SM2,-8.209
same,DC50,"LU99_SM2, protein degradation, four-parameter fit, read-out: EC50 (the source's name)",6.18 nM
